Legend:
[1] = system: HEK-293 cells stably transfected with hERG potassium channels; assay: "Wash" protocol thallium flux fluorescence assay; assay type: cell-based; settings: range of dofetilide concentrations, slopes of normalized fluorescence 12-22 s, compared between indicators
Description: The wash protocol experiment was conducted as follows. To a 384-well, black-wall, clear bottom, poly-D-lysine coated plate, add 20 μl/well of α-MEM containing 10% fetal bovine serum and 1× glutaGRO (Cell Culture Medium) and a 1000 cell/μl suspension of HEK-293 cells stably transfected with hERG potassium channels (Cell Plate). Incubate the Cell Plate overnight in a 5% CO2 cell culture incubator at 37° C. Remove the Cell Culture Medium from the Cell Plate and replace it with 20 μl/well Hanks Balanced Salt Solution+20 mM HEPES pH 7.3 (Assay Buffer). Dissolve 25 μg of thallium ion indicator (also referred to as a “dye”) in 25 μl DMSO containing 7% (w/v) Pluronic F-127. Add 12.5 μl of the dissolved thallium ion indicator to 10 ml Assay Buffer (Dye Loading Solution). Add 20 μl/well of Dye Loading Solution to the Cell Plate. Incubate the Cell Plate containing Dye Loading Solution for 1 hour at room temperature. […] Analyze data representing the amplitude of the fluorescent signal for each well at each of the 120 time points acquired during the Data Acquisition Protocol using Microsoft Excel by first dividing the fluorescence values from each individual well at each time point by the fluorescent value for that well at the first time point (Normalized Fluorescence Values). Calculate slopes of the Normalized Fluorescence Values between the 12 second and 22 second time points (Slope Values). […]

[2] = system: HEK-293 cells stably transfected with hERG potassium channels; assay: "No-wash" protocol thallium flux fluorescence assay; assay type: cell-based; settings: no-wash protocol with 1.25 mM probenecid; range of dofetilide concentrations; compared to FluoZin-2, AM
Description: The no-wash protocol was conducted as follows. To a 384-well, black-wall, clear bottom, poly-D-lysine coated plate, add 20 μl/well of α-MEM containing 10% fetal bovine serum and 1× glutaGRO (Cell Culture Medium) and a 1000 cell/μl suspension of HEK-293 cells stably transfected with hERG potassium channels (Cell Plate). Incubate the Cell Plate overnight in a 5% CO2 cell culture incubator at 37° C. Remove the Cell Culture Medium from the Cell Plate and replace it with 20 μl/well Hanks Balanced Salt Solution+20 mM HEPES pH 7.3+1.25 mM Probenecid (sodium salt) (NW-Assay Buffer). Dissolve 25 μg thallium ion indicator (also referred to herein as a “dye”) in 25 μl DMSO containing 7% (w/v) Pluronic F-127. Add 12.5 μl of the dissolved thallium ion indicator to 10 ml Probenecid Assay Buffer (NW-Dye Loading Solution). Add 20 μl/well of Dye Loading Solution to the Cell Plate. […] Analyze data representing the amplitude of the fluorescent signal for each well at each of the 120 time points acquired during the Data Acquisition Protocol using Microsoft Excel by first dividing the fluorescence values from each individual well at each time point by the fluorescent value for that well at the first time point (Normalized Fluorescence Values). Calculate slopes of the Normalized Fluorescence Values between the 12 second and 22 second time points (Slope Values). […]

| Structure (SMILES) | fluorescence results (indicator performance, FIG. 1) [1] | normalized signal amplitude (FIG. 2) [2] |
| --- | --- | --- |
| COc1cc(NC(=O)c2ccc3c(c2)C(=O)OC32c3ccc(OC(C)=O)cc3Oc3cc(OC(C)=O)ccc32)ccc1N(CC(=O)OCOC(C)=O)CC(=O)OCOC(C)=O [Example 1, bis(acetoxymethyl) 2,2′-((4-(3′,6′-diacetoxy-3-oxo-3H-spiro[isobenzofuran-1,9′-xanthen]-5-ylcarboxamido)-2-methoxyphenyl)azanediyl)diacetate] | essentially indistinguishable | substantial and unexpected improvement in normalized signal amplitude over FluoZin-2, AM |
| COc1cc(NC(=O)c2ccc3c(c2)C(=O)OC32c3cc(F)c(OC(C)=O)cc3Oc3cc(OC(C)=O)c(F)cc32)ccc1N(CC(=O)OCOC(C)=O)CC(=O)OCOC(C)=O [FluoZin-2, AM, reference compound] | essentially indistinguishable |  |

Source: patent publication US9103791B1, “Thallium fluorescent ion indicator and assay” (Vanderbilt University, priority 2012, dated 2015)
